# According to patent US20200390755A1, “COMPOUND FOR TREATING NERVOUS SYSTEM DISEASES AND USE THEREOF” (SHAANXI MICOT TECHNOLOGY CO., LTD., priority 2018, published 2020):
# B1: BDNF: Brain-derived neurotrophic factor, positive control, purchased from Peprotech (protein, UniProt P23560 19-247, looked up)
# Neurotrophic factor BDNF …: APMKEANIRGQGGLAYPGVRTHGTLESVNGPKAGSRGLTSLADTFEHVIEELLDEDQKVRPNEENNKDADLYTSRVMLSSQVPLEPPLLFLLEEYKNYLDAANMSMRVRRHSDPARRGELSVCDSISEWVTAADKKTAVDMSGGTVTVLEKVPVSKGQLKQYFYETKCNPMGYTKEGCRGIDKRHWNSQCRTTQSYVRALTMDSKKRIGWRFIRIDTSCVCTLTIKRGR
# Experiments:
# TrkB receptor = biological target: T1, TrkB receptor (Mus musculus, UniProt P15209); assay: Western blotting of p-TrkB and t-TrkB in primary cortical neuron cells; assay type: cell-based; settings: for Relative intensity of p-TrkB/t-TrkB protein: 10 min at 37° C., Vehicle = 100, n = 3
# T1 construct: The culture continued until the primary cortical neuron cells mature; endogenous in cells; host or cells: primary cortical neurons from E18 mouse embryos (N171-82Q WT male x B6C3F1/J female)
# Description: (§1) N171-82Q WT male mice were mated with female B6C3F1/J hybrid mice. B6C3F1/J mice 18 days after pregnancy were anesthetized with isoflurane and dissected to remove embryos, which were then placed in a 10 cm Petri dish containing Leibovitz's buffer. The head of the embryo was cut off, and the brain was peeled off to obtain the whole mouse brain, which was then placed in a new 10 cm Petri dish containing Leibovitz's buffer. The neurocortex of the brain was separated and placed in a 15 mL centrifuge tube containing 3 mL Leibovitz's buffer. The centrifuge tube was centrifuged at 1000 rpm for 1 minute, and the Leibovitz's buffer was gently removed from the centrifuge tube, and then 750 μL of 0.25% trypsin-EDTA and 75 μL of 0.1% DNase (2000 U/mL) were added to digest at 37° C. for 15 min. 750 μL of DMEM medium containing 5% FBS was added to stop the digestion. The cells were mixed well, and centrifuged at 1000 rpm for 5 minutes. Trypins/DNase mixture was removed, and 750 μL of Neurobasal medium (B-27, Glutamax, P/S) was added. The cells were mixed by gently pipetting with a pipette for 30 times. The cell suspension was filtered with a 40 µm filter and transferred to another new 50 mL centrifuge tube. 10 μL of the cell suspension was added to 90 μL of DMEM (diluted 10 times), and 10 μL of the liquid mixture was placed on a hemocytometer so that the suspension filled between the cover slip and the counting plate for counting. The cells in the four large grids of the plate were counted, wherein for the cells across the line, only the cells on the left and upper side lines were counted. The following formulas were used:
# (§2) Number of cells/mL=total number of cells in the four large grids/4×10^4/mL
# (§3) Total number of cells/mL=total number of cells in the four large grids/4×10^4/mL×dilution factor.
# (§4) After counting, the cells were diluted with Neurobasal selection medium so that 1 mL of Neurobasal culture medium contained 0.5×10^6 cells.
# (§5) 200 μL of PDL solution previously heated in a 37° C. water bath was added to each well of a 6-well plate, and incubated at 37° C. overnight to allow PDL to evenly coat the well plate. The PDL solution was absorbed and the plate was washed twice with PBS. Before use, the PBS remaining on the plate was absorbed and the cover was opened to dry the plate in a super clean bench. 2 mL of cell suspension was added to each well (37° C., 5% CO2), and the cells were cultured until adherence. The culture medium was replaced and the culture continued for 3 days, and then the growth status of neurons was observed. Every other 3 days, half of the medium was removed and replaced with fresh complete medium. The culture continued until the primary cortical neuron cells mature (usually mature on the 14th day of culture).
# (§6) After the primary cortical neuron cells have matured, appropriate amount of freshly prepared culture medium was added until final volume in each well was 2 mL. The experiment included a blank control group (Vehicle), a positive control group BDNF (10 ng/mL), a control compound group (500 nM), and 6 test compound groups (500 nM). Three repeats were set for each dose. After incubating at 37° C. for 10 min, the culture solution was discarded and the cells were washed with pre-chilled PBS, and then 40 μL of pre-chilled lysate (RIPA buffer 10 mL and protease and phosphatase inhibitor 100 μL) was added to each well for lysis on ice for 30 min. After lysis, the cell was crushed by ultrasonic cell crusher, centrifuged at 14000 rpm for 20 min at 4° C. The supernatant was transferred to a new 1.5 mL centrifuge tube to extract protein. Western blotting experiments were used to detect the protein levels of (A) p-TrkB and t-TrkB; (B) p-AKT and t-AKT.
# (§7) The software Sigmaplot 13.0 was used for statistical analysis of the data, and the data of each group was expressed as mean±standard error (x±SEM). […]
# AKT signaling pathway = assay: Western blotting of p-AKT and t-AKT in primary cortical neuron cells; assay type: cell-based, mouse; settings: 10 min at 37° C., Vehicle = 100, n = 3
# Description: as §1, §2, §3, §4, §5, §6, §7
# Phospho-Akt S473 = assay: ELISA analysis of Phospho-Akt S473 in primary cortical neuron cells; assay type: cell-based, mouse; settings: 10 min at 37° C.
# Description: The primary cortical neuron cells were cultured in the same way as in Example 21, and after maturity, appropriate amount of freshly prepared culture medium was added until final volume in each well was 2 mL. The experiment included a blank control group (Vehicle), a positive control group BDNF (10 ng/mL), a control compound group (500 nM), and 6 test compound groups (500 nM). Three repeats were set for each dose. After incubating at 37° C. for 10 min, the culture solution was discarded and the cells were washed with pre-chilled PBS, and then 40 μL of pre-chilled lysate (RIPA buffer 10 mL and protease and phosphatase inhibitor 100 μL) was added to each well for lysis on ice for 30 min. After lysis, the cell was crushed by ultrasonic cell crusher, centrifuged at 14000 rpm for 20 min at 4° C. The supernatant was transferred to a new 1.5 mL centrifuge tube to extract protein. The p-Akt ELISA experiment quantitatively detected the intracellular p-Akt protein level.
# A series of p-Akt standard solutions with different concentrations were prepared, and the absorbance value was measured to make a standard curve. Phospho-Akt1 (Ser473) sandwich ELISA kit was purchased from Cell Signaling Technology (catalog number 7160). The antibody was coated in a 96-well plate at 4° C. overnight and was washed. The coated plate was blocked with 2% bovine serum albumin (BSA), and after sufficient washing, 100 μL of sample diluent (supplied in the kit) was added to each well to dilute the extracted protein. The plate was incubated overnight at 4° C. After washing 4 times with 200 μL of washing buffer (supplied in the kit), 100 μL/well of detection antibody was added and the plate was incubated at 37° C. for 1 hour. After 4 washes, 100 μL of HRP-conjugated secondary antibody (supplied in the kit) was added and the plate was incubated at 37° C. for 30 minutes. After the final wash, 100 μL of TMB substrate was added to each well and the plate was incubated at 37° C. for 10 minutes. TMB was use as a substrate to detect the signal, since TMB can be oxidized to produce a blue solution. The reaction was stopped by adding 100 μL/well stop solution, and the test result can remain stable within one hour after the stop of the reaction. The value of each well at 450 nm and 650 nm was detected using a microplate reader. The optical density (OD) was determined by subtracting the reading at 650 nm (disturbance from the solution itself) from the reading at 450 nm. According to the OD value corresponding to the standard curve, the p-Akt concentration in each well was obtained.
# the data of each group was expressed as mean standard error (x±SEM). The ratio of the detection results of each positive control group (BNDF), control compound group (the same control compound as in Example 21) and each test compound group to the blank control group was used as an indicator to compare the p-Akt test results of the positive control group, control compound group, and each test compound group. One-way ANOVA and LSD post-hoc test were used to compare the measurement data among multiple groups, and P<0.05 was considered statistically significant.
# [1] = tested on: rats with permanent cerebral ischemia; assay: Neurobehavioral scoring in rats with permanent cerebral ischemia (MCAO thread plug); assay type: in vivo, SD rats; settings: 0.078 mg/kg intravenous
# Description: (§8) SD rats, male, about 220-250 g, were provided by the Experimental Animal Center of Medical College of Xi'an Jiaotong University. Rats were randomly divided into groups of 14 animals/group. The experiment included a sham group, a model group, a positive control Edaravone group and test compound groups 1-5.12 hours before the operation, the rats were fasted and were free to drink water, and then used for the modeling method of middle cerebral artery occlusion with thread plug. The rats were fixed on a wooden board after anesthesia, the common carotid artery was ligated proximally, the external carotid artery was ligated distally, and the main internal carotid artery into skull was retained. A ligature line was reserved at the bifurcation of the internal carotid artery for temporarily clamping the distal end of the internal carotid artery using an arterial clip. A 3-0 nylon thread with a length of 5 cm and a spherical shape with a diameter of 0.3 mm at the tip was inserted into the common carotid artery through a small incision at the bifurcation. The arterial clamp was loosened, and the thread plug was slowly advanced to 18˜20 mm. When there was resistance, the progress of the thread was stopped. At this time, the nylon thread plug entered the middle artery and blocked the blood flow, and then the ischemic phase began. The skin was sutured. In the sham operation group, the same procedure was executed, except that no thread plug was inserted.
# (§9) Administering was performed at 0 h, 3 h, 6 h and 12 h after ischemia, and then administering was performed once a day for 7 consecutive days. The test compound was prepared into a 4 mg/mL solution with 1% CMC-Na solution and administered by gavage. The edaravone group received an intravenous dose of 0.078 mg/kg.
# 2) The rats were lifted at its tail about 1 foot off the ground to observe the condition of both forelimbs. The rats were placed on a level ground and pushed on both shoulders to observe the difference in resistance on both sides. The rats were placed on the ground to observe the walking. The assessment was conducted using a five-grade four-point scoring method (0 to 4 points). The higher the score, the more severe the neurobehavioral damage.
# 0 point: the behavior is completely normal;
# 1 point: when the rat is lifted at its tail off the ground, the forelimb on the opposite side of the operation rotates and folds inwardly.
# 2 points: when the rat is placed on a level ground and pushed on both shoulders to observe the difference in resistance on both sides, the resistance on the opposite side of the operation reduces;
# 3 points: when the rat is placed on the ground to the walking, it circles around the opposite side of the operation;
# 4 points: The injury is so severe that the rat is unable to move independently.
# (§10) (2) Statistical analysis of data: SPSS18.0 statistical software was used for statistical analysis and the data of each group was expressed as the mean standard error (x±SEM). One-way ANOVA and multiple comparisons between groups were used to compare the averages of measurement data among multiple groups. Rank score test was used for behavioral grading data, and Kaplan-Meier method was used for mortality. P<0.05 was considered statistically significant.
# [2] = tested on: rats with permanent cerebral ischemia; assay: Cerebral infarction volume by TTC staining in rats with permanent cerebral ischemia; assay type: in vivo, SD rats; settings: 0.078 mg/kg intravenous, after 7 days of ischemia
# Description: as §8, §9
# 3) Percentage of cerebral infarction volume after 7 days of ischemia: TTC staining was used to observe the infarct area.
# The rats in each group were sacrificed by spinal dislocation […]. The brain tissue was quickly peeled off and placed in the refrigerator at −20° C. to freeze to an appropriate hardness to remove the olfactory bulb, cerebellum and low brain stem. Continuous coronary slices were performed at 1 mm intervals, to obtain a total of 5 slices. The slices were placed in 0.5% triphenyltetrazolium chloride (TTC) in phosphate buffer (pH=7.4) and incubated in a 37° C. incubator without light for 15 min, and then fixed in paraformaldehyde and observed (fixed time should be within 24 h). The normal brain tissue is rosy red, and infarcted brain tissue is pale. After taking the picture, the slice was scanned to save the image. The area of cerebral infarction and the total area of slices were calculated using Image J processing software.
# Cerebral infarction volume (%)=(volume of the contralateral hemisphere of the operation−volume of the uninfarcted portion of the hemisphere of the occlusion)/volume of the contralateral hemisphere of the operation×100%
# as §10
# T1 sequence (P15209 32-821): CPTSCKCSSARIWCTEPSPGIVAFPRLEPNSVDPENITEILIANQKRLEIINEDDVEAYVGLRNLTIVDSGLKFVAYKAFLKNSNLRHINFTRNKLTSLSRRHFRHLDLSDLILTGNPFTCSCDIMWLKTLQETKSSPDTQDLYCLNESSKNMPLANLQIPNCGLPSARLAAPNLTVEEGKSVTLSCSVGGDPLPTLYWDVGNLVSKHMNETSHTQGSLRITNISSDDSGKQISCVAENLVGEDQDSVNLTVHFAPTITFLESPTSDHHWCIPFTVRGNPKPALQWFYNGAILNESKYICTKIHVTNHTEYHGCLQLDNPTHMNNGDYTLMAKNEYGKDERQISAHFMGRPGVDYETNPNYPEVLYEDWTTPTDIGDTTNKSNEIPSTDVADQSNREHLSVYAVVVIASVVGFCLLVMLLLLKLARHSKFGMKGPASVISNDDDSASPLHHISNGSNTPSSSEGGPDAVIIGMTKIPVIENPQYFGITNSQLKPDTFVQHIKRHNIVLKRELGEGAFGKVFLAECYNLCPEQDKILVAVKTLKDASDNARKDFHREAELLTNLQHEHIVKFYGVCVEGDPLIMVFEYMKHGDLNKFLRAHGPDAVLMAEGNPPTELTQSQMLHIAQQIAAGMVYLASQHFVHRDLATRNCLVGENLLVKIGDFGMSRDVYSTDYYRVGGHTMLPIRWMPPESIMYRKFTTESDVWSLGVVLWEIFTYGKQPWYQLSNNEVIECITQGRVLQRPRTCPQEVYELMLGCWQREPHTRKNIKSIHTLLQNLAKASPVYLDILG
molecule,measurement,setting,value
"O=c1cc(-c2ccc(N3CCOCC3)cc2)oc2c(O)c(O)ccc12 [Control compound, reference compound]",Relative intensity of p-TrkB/t-TrkB protein,TrkB receptor; 500 nM,138.890 ± 15.547
same,Relative intensity of p-AKT/t-AKT protein,AKT signaling pathway; 500 nM,147.748 ± 4.832
same,"Relative content of p-Akt protein (ELISA, ratio to blank control group)",Phospho-Akt S473; 500 nM,138.33±2.08%
"CC1=NN(c2ccccc2)C(=O)C1 [Edaravone, reference compound]",Neurobehavioral score (0 to 4 points),[1]; 6 h after ischemia,2 ± 0.18
same,Neurobehavioral score (0 to 4 points),[1]; 1 d after ischemia,2.36 ± 0.29
same,Neurobehavioral score (0 to 4 points),[1]; 2 d after ischemia,2.89 ± 0.31
same,Neurobehavioral score (0 to 4 points),[1]; 3 d after ischemia,2.38 ± 0.37
same,Neurobehavioral score (0 to 4 points),[1]; 4 d after ischemia,2 ± 0.33
same,Neurobehavioral score (0 to 4 points),[1]; 5 d after ischemia,2.14 ± 0.46
same,Neurobehavioral score (0 to 4 points),[1]; 6 d after ischemia,2 ± 0.31
same,Neurobehavioral score (0 to 4 points),[1]; 7 d after ischemia,1.67 ± 0.21
same,Volume percentage of cerebral infarction,[2],33.50 ± 7.21%
"[2H]c1c(-c2ccc(N3CCCCC3)cc2)oc2c(O)c(O)ccc2c1=O [Example 7, 3-deutero-7,8-dihydroxy-2-(4-(piperidin-1-yl)phenyl)-4H-chromen-4-one]",Relative intensity of p-TrkB/t-TrkB protein,TrkB receptor; 500 nM,218.156 ± 12.556
same,Relative intensity of p-AKT/t-AKT protein,AKT signaling pathway; 500 nM,220.514 ± 3.476
same,"Relative content of p-Akt protein (ELISA, ratio to blank control group)",Phospho-Akt S473; 500 nM,218.33±2.31%
B1,Increase of relative intensity of p-TrkB compared with Vehicle group,TrkB receptor; BDNF 10 ng/mL,2.74 times
same,Relative intensity of p-TrkB/t-TrkB protein,TrkB receptor; BDNF 10 ng/mL,274.260 ± 8.047
same,Relative intensity of p-AKT/t-AKT protein,AKT signaling pathway; BDNF 10 ng/mL,229.306 ± 3.912
same,"Relative content of p-Akt protein (ELISA, ratio to blank control group)",Phospho-Akt S473; BDNF 10 ng/mL,231%
